Paper PMC9910343 (ACS chemical neuroscience, 2022)
Several values for one entry are separate records, joined by “and”; a condition that tells them apart may be missing. Identical values can stand only once.

How the values were obtained:
[1] = test system: neurons expressing PSAM-GlyRs; conditions: systemic administration; rhesus monkeys; cited from earlier work
[2] = rats; based on the unbound fraction; cited from earlier work
[3] = Plasma and CSF pharmacokinetics after s.c. or i.v. administration; format: in vivo, rhesus monkeys; conditions: for Cmax of metabolite hydroxyvarenicline / AUC of metabolite hydroxyvarenicline: mean
[4] = after uPSEM817 0.064 mg/kg i.v., CSF
[5] = after uPSEM817 0.064 mg/kg i.v., plasma
[6] = after uPSEM817 0.064 mg/kg s.c., plasma

SMILES	neuronal activity in neurons expressing PSAM-GlyRs [1]	CSF:plasma ratio [2]	detection of varenicline as metabolite in plasma or CSF ([3]; after uPSEM817 0.064 mg/kg s.c. or i.v.)	Tmax of metabolite hydroxyvarenicline [3, 4]	Cmax of metabolite hydroxyvarenicline [3, 4]	Tmax of metabolite hydroxyvarenicline [3, 5]	AUC of metabolite hydroxyvarenicline [3, 5]	Cmax of metabolite hydroxyvarenicline [3, 5]	Tmax of metabolite hydroxyvarenicline [3, 6]	AUC of metabolite hydroxyvarenicline [3, 6]	Cmax of metabolite hydroxyvarenicline [3, 6]	detection of hydroxyvarenicline as metabolite in CSF ([3]; after uPSEM817 0.064 mg/kg, CSF)
c1cnc2cc3c(cc2n1)[C@@H]1CNC[C@H]3C1 [varenicline]	reduces neuronal activity	1.25	not detected									
O=c1cnc2cc3c(cc2[nH]1)C1CNCC3C1 (stereo not drawn) [hydroxyvarenicline]				90 min	0.05 ng/mL	180 min	1.161 ng·h/mL	0.87 ng/mL and 0.874 ng/mL	60 min	0.556 ng·h/mL	0.55 ng/mL and 0.553 ng/mL	only detected in a single CSF sample for one animal
